Measured values taken from US7879792B2, “Synthetic peptide inhibitors of thrombin and thrombin activation of protease activated receptors 1 and 4” (The Regents of the University of Michigan, priority 2005, dated 2011).
Like-named read-outs stand apart in the source and are kept apart here. Where a SMILES comes first, the peptide text is derived from it.

How the values were obtained:
[1] = stability testing in intestinal homogenate; assay type: in vitro ADME; settings: rat
Procedure: (§1) Stability testing of the various compounds was performed in buffer, intestinal perfusate, and an intestinal homogenate preparation to assess the potential oral availability of these compounds. Initial studies prepared the tissue for stability studies. The buffer used in stability testing is 10 mM MES (pH 6.5) containing 135 mM NaCl, and 5 mM KCl. To collect intestinal perfusate from rats, male Sprague Dawley rats, 8 to 10 weeks old, weighing 250 to 350 g were fasted 15 to 18 hours with water given ad libitum. Anesthesia was administered by intramuscular injection of pentobarbital/ketamine (40 mg/kg and 80 mg/kg, respectively). The rats were placed on a warming pad under a surgical lamp to maintain body temperature and jejunal intestinal segments were exposed through a midline, abdominal incision. Approximately 20 cm segment of the jejunum (2 to 4 cm distal to the ligament of Treitz) was cannulated and the intestinal segments were perfused with 10 mM MES (pH 6.5) containing 135 mM NaCl, and 5 mM KCl at a flow-rate of 0.5 ml/min at 37° C. using a constant infusion pump (Harvard Apparatus, South Natick, Mass.). The collected perfusate was stored at −80° C. until use for ex vivo stability studies. After collection, the perfused intestinal segments were flushed with ice-cold 0.15 M KCl solution and the animal was euthanized and the jejunal intestinal segment detached. The inner intestinal tissue layers are scraped out and homogenized in MES buffer (pH 6.5) in a ratio of 1 part of intestinal tissue to 5 parts buffer. Total protein content of the perfusate and the homogenate were determined using a Biorad protein assay kit. The intestinal homogenate samples were used immediately or rapidly frozen at −80° C. until stability analysis.
(§2) The actual stability testing protocol is as follows: A 0.1 ml aliquot of the synthetic peptide solution (1 mg/ml) was added to 0.9 ml of MES buffer, pH 6.5, intestinal perfusate, or intestinal homogenate at 37° C. Samples were mixed by vortexing and 100 microliter aliquots were removed over a 60 to 90 minute period for analysis of breakdown products. The 100 microliter sample aliquots were diluted 10 fold with water and subjected to solid phase extraction using a Waters Oasis HLB column. Briefly, the columns were preconditioned by passing 1 ml of MeOH and 1 ml of water over the column, and 1 ml of sample was added to the column. The column was washed with 5% methanol:95% water solution to remove proteins and salts, then eluted with 1 ml of 100% methanol. The methanol was removed by vacuum, and the sample was reconstituted in mobile phase for LC/MS/MS analysis.
(§3) LC/MS/MS analysis was performed on a HP1100 HPLC (Hewlett Packard) interfaced with a Quattro II MS/MS detector (Waters/Micromass). For the HPLC separation, a 10 μL aliquot of sample in a mobile phase consisting of an equal volume mixture of acetonitrile/water containing 0.5% formic acid was injected onto a 150 mm×2.2 mm, 5 μm C8 column (Higgins Analytical Inc) and developed at a flow rate of 0.2 ml/min for 5 minutes. The MS detector was used in single ion recording mode at a cone voltage of 50 Volts.

[2] = rat intestinal in situ perfusion permeability; assay type: in vivo; settings: rat
Procedure: To determine the intestinal permeability of the various peptide analogs, male albino Sprague-Dawley rats, 9-10 weeks old and weighing 250-350 g were fasted for 18 hours with free access to water. The rats were anesthetized with an intramuscular injection of ketamine/xylazine/butorphanol (87 mg/kg, 6 mg/kg, and 0.2 mg/kg body weight, respectively). The abdomen was opened by a 4-5 cm midline incision and a 10 cm jejunal segment was cannulated on two ends and connected to a syringe pump that pumps the perfusing solution through the cannulated intestine at a constant rate and at a temperature of 37° C. The isolated segment was rinsed with 10 mM MES (pH 6.5) at a flow-rate of 0.5 ml/min in order to clean out any residual debris. Jejunal perfusion was subsequently performed with the same buffer containing 135 mM NaCl, 5 mM KCl and 0.01% PEG 4000 at a flow rate of 0.2 ml/min containing test compound, internal permeability reference standards (e.g., metoprolol) and ^14C-PEG 4000 as a non-absorbable marker for measuring water flux. After steady-state is reached within the perfused intestinal segment, typically 30 minutes after start of perfusion, samples were taken at 10 minute intervals for 1 hour. ^14C (PEG-4000) levels are assayed by scintillation counting and test compounds and internal permeability standard analysis by LC/MS/MS. Samples are frozen and stored at −80° C. until analysis.
The effective permeability (Peff) determined from the in situ perfusion is calculated from equation 1
[formula] where Q is the perfusion buffer flow rate, C′out is the outlet concentration of the compound that has been adjusted for water transport (equation 2) after passing through the intestinal segment, C′in is the inlet or starting concentration of the compound, R is the radius of the intestinal segment (set to 0.2 cm) and L is the length of the intestinal segment. To correct for water transport, a non-absorbed radioactive tracer, ^14C PEG-4000, is included in the perfusion buffer. The Cout/Cin ratio is corrected for water transport according to equation 2:
[formula] where Aout-A0 is equal to the radioactivity counts in the outlet sample minus background (dpm) and Ain-A0 is equal to the radioactivity counts in the inlet sample minus background (dpm).
In certain instances, in addition to perfusing the intestinal segment as described, plasma is drawn through a portal vein cannula to determine the amount of material entering the portal system during the perfusion. This additional experimental step can aid in determining the true intestinal permeability of unstable compounds. After steady state conditions are reached as described above, 0.5 ml aliquots of plasma are withdrawn from the portal vein at regular intervals throughout the experimental time frame. The plasma samples are deproteinated with acetonitrile and the sample is subjected to SPE and LC/MS analysis as described above. From the plasma concentration of compound, the mesenteric permeability can be determined by substitution into equation 3: Flux=A*Pe-mes*Ci 3) where Flux is equal to the portal blood flow (estimated at 1 ml/min in the rat)×the steady state mesenteric blood concentration of the peptide analogs, A is the absorptive area of the intestine (estimated at 12.56 cm^2 in the rat intestine), Pe-mes is the mesenteric Permeability (cm/sec), and Ci is the starting concentration of drug in the perfusate (ug/ml).

[3] = stability testing in intestinal perfusate; assay type: in vitro ADME; settings: rat, 37° C.
Procedure: as §1, §2, §3

human α-thrombin = human α-thrombin (Homo sapiens, UniProt P00734); assay: inhibition of α-thrombin hydrolysis of chromogenic substrate; assay type: biochemical; settings: Ki (μM) + SD, αIIa (2 nM), alpha-thrombin 2 nM, Sar-Pro-Arg-paranitroanilide
[4] = stability testing in MES buffer (pH 6.5); assay type: physicochemical; settings: 37° C., read-out: t1/2 (min) MES Buffer (pH 6.5)
Procedure: as §1
The actual stability testing protocol is as follows: A 0.1 ml aliquot of the synthetic peptide solution (1 mg/ml) was added to 0.9 ml of MES buffer, pH 6.5, intestinal perfusate, or intestinal homogenate at 37° C. Samples were mixed by vortexing and 100 microliter aliquots were removed over a 60 to 90 minute period for analysis of breakdown products. […]

t1/2 (min) Intestinal Homogenate ([1]; 37° C.)	Papp ([2]; from portal vein plasma during perfusion, read-out: Permeability (mesenteric)) [×10⁻⁶ cm/s]	Papp ([2]; rat jejunal in situ perfusion, read-out: Permeability (in situ)) [×10⁻⁶ cm/s]	t1/2 (min) Intestinal Perfusate [3]	half-life [4] [min]	Compound	half-life at 0.1 mg/ml ([1]; male, Sprague Dawley, intestinal (jejunal) homogenate, pH 6.5, 37° C., read-out: t1/2 (min) Intestinal Homogenate) [min]	stability in intestinal homogenate (FIG. 12) [1]	Papp ([2]; male, Sprague-Dawley, other: in situ jejunal perfusion, pH 6.5, from portal vein plasma during perfusion, read-out: Permeability (mesenteric)) [×10⁻⁶ cm/s]	Papp ([2]; male, Sprague-Dawley, other: in situ jejunal perfusion, pH 6.5, rat jejunal in situ perfusion, read-out: Permeability (in situ)) [×10⁻⁶ cm/s]	half-life at 0.1 mg/ml ([3]; male, Sprague Dawley, intestinal (jejunal) perfusate, pH 6.5, rat, read-out: t1/2 (min) Intestinal Perfusate) [min]	Ki (human α-thrombin) [µM]	half-life at 0.1 mg/ml [4] [min]
–	–	–	–	–	Cc1ccc(C[C@H](NC(=O)[C@@H](C)NC(=O)[C@@H]2CCCN2C(=O)[C@@H]2C[C@@H]3CCCC[C@@H]3N2C(=O)[C@H](N)CCCN=C(N)N)C(N)=O)cc1 [rOicPaF(p-Me), D-Arg-Oic-Pro-D-Ala-Phe(p-Me)] (HELM PEPTIDE1{[dR].[O=C([C@@H]1C[C@@H]2CCCC[C@@H]2N1[*:1])[*:2]].P.[dA].[Cc1ccc(C[C@H](N[*:1])C(=O)[*:2])cc1].[am]}$$$$V2.0)	757	most stable	0.309	1	314	6.4 to 10.6	363
stable	0.139	6.2	stable	604	C[C@@H](NC(=O)[C@@H]1CCCN1C(=O)[C@@H]1C[C@@H]2CCCC[C@@H]2N1C(=O)[C@H](N)CCCNC(=N)N)C(=O)N[C@@H](Cc1ccccc1)C(N)=O [rOicPaF] (HELM PEPTIDE1{[dR].[O=C([C@@H]1C[C@@H]2CCCC[C@@H]2N1[*:1])[*:2]].P.[dA].F.[am]}$$$$V2.0)	–	most stable	–	–	–	–	–
